Activity calls are given as the source filed them. The calls are words filed in the database; no cut-off is given here.
What was measured:
PC-12 [1] = assay: Neuritogenic activity in rat PC12 cells in serum free medium assessed as neurite outgrowth at 25 uM after 24 hrs by light microscopy; assay type: functional, cell-based
PC-12 [2] = assay: Neuritogenic activity in rat PC12 cells in serum free medium assessed as potentiation of NGF-induced neurite outgrowth at 25 uM after 24 hrs by light microscopy in presence of 20 ng/ml NGF; assay type: functional
PC-12 [3] = assay: Neuritogenic activity in rat PC12 cells in serum free medium assessed as potentiation of NGF-induced neurite outgrowth at 25 uM after 24 hrs by light microscopy in presence of 20 ng/ml NGF relative to NGF; assay type: functional, cell-based

| SMILES | Activity (PC-12 [1]) | Activity (PC-12 [2]) | Activity (PC-12 [3]) |
| --- | --- | --- | --- |
| CC(C)C1=C2[C@H]3C[C@@H](OC(=O)c4ccccc4)C(COC(=O)c4ccccc4)=C[C@H](O)[C@]3(C)CC[C@@]2(C(=O)O)CC1 | inactive | inactive | – |
| C[C@@H](CO)C1=C2[C@H]3C[C@H](O)C(COC(=O)c4ccccc4)=C[C@H](O)[C@]3(C)CC[C@@]2(C)CC1 | inactive | inactive | – |
| C[C@H](CO)C1=C2C3=CC=C(C=O)C[C@H](O)[C@]3(C)CC[C@@]2(C)CC1 [SARCODONIN A] | inactive | 20% | Active |
| C[C@@H](CO)C1=C2[C@H]3CC=C(C=O)CC(=O)[C@]3(C)CC[C@@]2(CO)CC1 | inactive | inactive | – |
| CC(=O)OC[C@@H](C)C1=C2[C@H]3CC=C(C=O)CC(=O)[C@]3(C)CC[C@@]2(C)CC1 | inactive | inactive | – |
| C[C@@H](CO)C1=C2[C@H]3C[C@H](O)C(COC(=O)c4ccccc4)=C[C@H](O)[C@]3(C)CC[C@@]2(CO)CC1 | inactive | inactive | – |
| C[C@H](CO)C1=C2[C@H]3CC=C(C=O)CC(=O)[C@]3(C)CC[C@@]2(C)CC1 [SARCODONIN G] | inactive | 24.9% | Active |

Reference: ChEMBL document CHEMBL1799959, “Cyathane diterpenes from Chinese mushroom Sarcodon scabrosus and their neurite outgrowth-promoting activity” (2011)
